Results published in EP4631937A1, “CRYSTALLINE FORM OR AMORPHOUS FORM OF OXOISOINDOLE-5-FORMAMIDE COMPOUND OR SALT AND SOLVATE THEREOF” (Hangzhou Glubio Pharmaceutical Co., Ltd., priority 2022, dated 2024).

Experiments:
Format in all cases: physicochemical
[1] = Stability test of crystalline forms (open container at 25°C/92% RH and 40°C/75% RH, sealed container at 60°C, 13 days; XRPD, HPLC, colour); conditions: for Color / Solid (XRPD) / Chiral purity / Chemical purity: Solid; for Chiral purity / Chemical purity: HPLC/SFC
[2] = Hygroscopicity test by DVS, with XRPD after DVS; conditions: for 2nd adsorption weight change percentage / 2nd desorption weight change percentage / 1st adsorption weight change percentage / 1st desorption weight change percentage / XRPD after DVS test / moisture adsorbed (DVS): 25 °C; for XRPD after DVS test: after 40-0-95-0-40% RH
Protocol: • DVS Intrinsic Dynamic Vapor Sorption Instrument • Gas flow rate 200 sccm, furnace temperature 25 °C.
The hygroscopicity and dehydration behavior of crystalline form B was investigated by DVS. Humidity program: 25 °C, 40-0-95-0-40% RH, dm/dt 0.002, shortest equilibrium time was 60 min, and longest equilibrium time was 360 min. XRPD was also performed on the samples after DVS test to determine whether the crystal transformation occurred.
The hygroscopicity and dehydration behavior of crystalline form E was investigated by DVS. Humidity program: 25 °C, 40-0-95-0-40% RH, dm/dt 0.002, shortest equilibrium time was 60 min, and longest equilibrium time was 360 min. XRPD was also performed on the samples after DVS test to determine whether the crystal transformation occurred.
The hygroscopicity and dehydration behavior of crystalline form G was investigated by DVS. Humidity program: 25 °C, 40-0-95-0-40% RH, dm/dt 0.002, shortest equilibrium time was 60 min, and longest equilibrium time was 360 min. XRPD was also performed on the samples after DVS test to determine whether the crystal transformation occurred.

[3] = Stability test of crystalline forms (open container at 25°C/92% RH and 40°C/75% RH, sealed container at 60°C, 13 days; XRPD, HPLC, colour); conditions: for Initial purity (HPLC/SFC) Chemical purity / Initial purity (HPLC/SFC) Chiral purity: before storage
Protocol: Placed in a open container at 25°C/92% RH and 40°C/75% RH for 13 days, respectively, or in a sealed container at 60°C for 13 days. […]
(§1) Placed in a open container at 25 °C/92% RH and 40 °C/75% RH for 13 days, respectively, or in a sealed container at 60 °C for 13 days. […]
as §1

[4] = 25 °C/92% RH, open container, 13 days
[5] = 40 °C/75% RH, open container, 13 days
[6] = 60 °C, sealed container, 13 days
[7] = relative humidity 0%, listed as Crystalline form B
[8] = relative humidity 10%, listed as Crystalline form B
[9] = relative humidity 20%, listed as Crystalline form B
[10] = relative humidity 30%, listed as Crystalline form B
[11] = relative humidity 40%, listed as Crystalline form B
[12] = relative humidity 50%, listed as Crystalline form B
[13] = relative humidity 60%, listed as Crystalline form B
[14] = relative humidity 70%, listed as Crystalline form B
[15] = relative humidity 80%, listed as Crystalline form B
[16] = relative humidity 90%, listed as Crystalline form B
[17] = relative humidity 95%, listed as Crystalline form B
[18] = Solid, 40 °C/75% RH, open container, 13 days
[19] = 25 °C/92% RH, open container, 1 week, listed as Crystalline form E
[20] = 40 °C/75% RH, open container, 1 week, listed as Crystalline form E
[21] = 60 °C, sealed container, 1 week, listed as Crystalline form E
[22] = relative humidity 0%, listed as Crystalline form E
[23] = relative humidity 10%, listed as Crystalline form E
[24] = relative humidity 20%, listed as Crystalline form E
[25] = relative humidity 30%, listed as Crystalline form E
[26] = relative humidity 40%, listed as Crystalline form E
[27] = relative humidity 50%, listed as Crystalline form E
[28] = relative humidity 60%, listed as Crystalline form E
[29] = relative humidity 70%, listed as Crystalline form E
[30] = relative humidity 80%, listed as Crystalline form E
[31] = relative humidity 90%, listed as Crystalline form E
[32] = relative humidity 95%, listed as Crystalline form E

O=C1CC[C@H](N2Cc3cc(C(=O)N[C@H](c4ccc(Cl)cn4)C4CCC4)ccc3C2=O)C(=O)N1 [crystalline form B, N-((S)-(5-chloropyridin-2-yl)(cyclobutyl)methyl)-2-((S)-2,6-dioxopiperidin-3-yl)-1-oxoisoindoline-5-carboxamide]
Color [1, 4]: No color change
Solid (XRPD) [1, 4]: The crystal form did not change, see Figure 15e
Chiral purity [1, 4]: 98.8% See Figure 15d
Chemical purity [1, 5]: 97.9% See Figure 15f
Chiral purity [1, 5]: 98.8% See Figure 15g
Color [1, 6]: No color change
Solid (XRPD) [1, 6]: The crystal form did not change, see Figure 15e
Chemical purity [1, 6]: 97.8% See Figure 15h
Chiral purity [1, 6]: 98.9% See Figure 15i
stability (crystal form) ([1]; stability tests of Table 14, Table 15 and Table 16, 25°C/92% RH, 40°C/75% RH, 60°C, 13 days): the crystal form did not change
2nd adsorption weight change percentage ([2]; relative humidity 0%): 0.0%
2nd desorption weight change percentage ([2]; relative humidity 0%): 0.0%
1st adsorption weight change percentage [2, 7]: 1.6%
1st desorption weight change percentage [2, 7]: 1.6%
1st adsorption weight change percentage [2, 8]: 2.0%
1st desorption weight change percentage [2, 8]: 2.0%
2nd adsorption weight change percentage [2, 8]: 0.4%
2nd desorption weight change percentage [2, 8]: 0.4%
1st adsorption weight change percentage [2, 9]: 2.7%
1st desorption weight change percentage [2, 9]: 2.7%
2nd adsorption weight change percentage [2, 9]: 1.1%
2nd desorption weight change percentage [2, 9]: 1.1%
1st adsorption weight change percentage [2, 10]: 3.2%
1st desorption weight change percentage [2, 10]: 3.3%
2nd adsorption weight change percentage [2, 10]: 1.7%
2nd desorption weight change percentage [2, 10]: 1.7%
1st adsorption weight change percentage [2, 11]: 3.7%
1st desorption weight change percentage [2, 11]: 3.8%
2nd adsorption weight change percentage [2, 11]: 2.2%
2nd desorption weight change percentage [2, 11]: 2.3%
1st adsorption weight change percentage [2, 12]: 4.5%
2nd desorption weight change percentage [2, 12]: 3.3%
1st adsorption weight change percentage [2, 13]: 5.0%
2nd desorption weight change percentage [2, 13]: 3.9%
1st adsorption weight change percentage [2, 14]: 5.4%
2nd desorption weight change percentage [2, 14]: 5.4%
1st adsorption weight change percentage [2, 15]: 5.9%
2nd desorption weight change percentage [2, 15]: 5.9%
1st adsorption weight change percentage [2, 16]: 6.9%
2nd desorption weight change percentage [2, 16]: 7.3%
1st adsorption weight change percentage [2, 17]: 9.2%
2nd desorption weight change percentage [2, 17]: 9.2%
XRPD after DVS test ([2]; listed as Crystalline form B): The crystal form did not change, see Figure 18b
stability (crystal form) ([2]; hygroscopic tests of Table 17, Table 18 and Table 19, DVS 25 °C, 40-0-95-0-40% RH): the crystal form did not change
moisture adsorbed (DVS) ([2]; under 40%RH-80%RH): 2.2%
moisture adsorbed (DVS) ([2]; under 40%RH-95%RH, listed as Crystalline form B): 5.5%
Chemical purity ([3]; Solid, 25 °C/92% RH, open container, 13 days, HPLC/SFC): 99.2% See Figure 15c
Color [3, 18]: No color change
Solid (XRPD) [3, 18]: The crystal form did not change, see Figure 15e
Initial purity (HPLC/SFC) Chemical purity ([3]; listed as Crystalline form B): 99.5% See Figure 15a
Initial purity (HPLC/SFC) Chiral purity ([3]; listed as Crystalline form B): 99.0% See Figure 15b

O=C1CC[C@H](N2Cc3cc(C(=O)N[C@H](c4ccc(Cl)cn4)C4CCC4)ccc3C2=O)C(=O)N1 [crystalline form E, N-((S)-(5-chloropyridin-2-yl)(cyclobutyl)methyl)-2-((S)-2,6-dioxopiperidin-3-yl)-1-oxoisoindoline-5-carboxamide]
Color ([1]; 25 °C/92% RH, open container, 1 week): No color change
Chemical purity [1, 19]: 98.3% See Figure 16c
Chiral purity [1, 19]: 98.6% See Figure 16d
Solid (XRPD) [1, 19]: The crystal form did not change, see Figure 16e
Color ([1]; 40 °C/75% RH, open container, 1 week): No color change
Chemical purity [1, 20]: 98.6% See Figure 16f
Chiral purity [1, 20]: 98.6% See Figure 16g
Solid (XRPD) [1, 20]: The crystal form did not change, see Figure 16e
Color ([1]; 60 °C, sealed container, 1 week): No color change
Chemical purity [1, 21]: 98.8% See Figure 16h
Chiral purity [1, 21]: 98.7% See Figure 16i
Solid (XRPD) [1, 21]: The crystal form did not change, see Figure 16e
1st adsorption weight change percentage [2, 22]: 0.1%
1st desorption weight change percentage [2, 22]: 0.1%
1st adsorption weight change percentage [2, 23]: 0.3%
1st desorption weight change percentage [2, 23]: 0.3%
2nd adsorption weight change percentage [2, 23]: 0.3%
2nd desorption weight change percentage [2, 23]: 0.3%
1st adsorption weight change percentage [2, 24]: 1.3%
1st desorption weight change percentage [2, 24]: 1.3%
2nd adsorption weight change percentage [2, 24]: 1.3%
2nd desorption weight change percentage [2, 24]: 1.3%
1st adsorption weight change percentage [2, 25]: 1.6%
1st desorption weight change percentage [2, 25]: 1.6%
2nd adsorption weight change percentage [2, 25]: 1.6%
2nd desorption weight change percentage [2, 25]: 1.6%
1st adsorption weight change percentage [2, 26]: 2.0%
1st desorption weight change percentage [2, 26]: 2.0%
2nd adsorption weight change percentage [2, 26]: 2.0%
2nd desorption weight change percentage [2, 26]: 2.0%
1st adsorption weight change percentage [2, 27]: 2.7%
2nd desorption weight change percentage [2, 27]: 2.8%
1st adsorption weight change percentage [2, 28]: 3.1%
2nd desorption weight change percentage [2, 28]: 3.3%
1st adsorption weight change percentage [2, 29]: 3.5%
2nd desorption weight change percentage [2, 29]: 3.5%
1st adsorption weight change percentage [2, 30]: 3.6%
2nd desorption weight change percentage [2, 30]: 3.6%
1st adsorption weight change percentage [2, 31]: 3.8%
2nd desorption weight change percentage [2, 31]: 3.8%
1st adsorption weight change percentage [2, 32]: 4.0%
2nd desorption weight change percentage [2, 32]: 4.0%
XRPD after DVS test ([2]; listed as Crystalline form E): The crystal form did not change, see Figure 19b
moisture adsorbed (DVS) ([2]; under 40%RH-95%RH, listed as Crystalline form E): 2.0% of moisture was adsorbed under 40%RH-95%RH, see Figure 19a
Initial purity (HPLC/SFC) Chemical purity ([3]; listed as Crystalline form E): 99.3% See Figure 16a
Initial purity (HPLC/SFC) Chiral purity ([3]; listed as Crystalline form E): 98.7% See Figure 16b
